Experimental data reported in US20220125093A1, “NUTRITIONAL SUPPLEMENTS INCLUDING MEAL REPLACEMENTS AND RELATED METHODS” (Ohio State Innovation Foundation, priority 2012, published 2022).

Columns and labels:
[1] = single dose of zinc, healthy young adult women, blood at 0, 1, 2, 3 and 4 hours
From the text: Zinc glycinate has not been studied at all in people who have had bariatric surgery. Furthermore, in published studies on any types of people, zinc glycinate has not been compared much to other forms of zinc. Thus, an unpublished comparative study was done in healthy young adult women that compared zinc glycinate to two other forms of zinc. The study utilized an indirect approach of absorption. In this approach, a single dose of zinc was given to young adult women; blood was taken at 0, 1, 2, 3, and 4 hours. Both plasma and red blood cells (erythrocytes) were analyzed for zinc and for each, an area under the curve graph was calculated for zinc content versus time.

[2] = Iron status as ferritin/CRP ratio after bariatric surgery; type: in vivo, human; conditions: added to meal replacement product, same amount of iron for each group
From the text: Design. Young adult females who were about to have bariatric surgery were recruited. Blood and urine samples were taken before surgery and 6 weeks later. People were divided into two groups. One group drank 2 servings per day of the new product related to this patent (N=12) for 6 weeks. The other group drank 2 servings of a current meal replacement product and also took other supplements including sublingual vitamin B12. The new product had the B12 put right in the meal replacement product. The vitamin is put in the product at a daily dose that is very high relative to normal recommendations, and high relative to what was used for injections or sublingual administration. Also, a coenzyme form of the vitamin was used in the meal replacement product.
Iron status was measured as ferritin/CRP ratios (ferritin reflects iron status but can also be influenced by inflammation; CRP only reflects inflammation).

| Compound | erythrocyte (red blood cell) zinc area under the curve [1] | plasma zinc area under the curve [1] | iron status (ferritin/CRP ratios) [2] |
| --- | --- | --- | --- |
| NCC(=O)[O-].NCC(=O)[O-].[Zn+2] [Zinc glycinate, zinc glycinate] | outperformed zinc oxide and gluconate | outperformed zinc oxide and gluconate | – |
| Iron Glycinate Chelate | – | – | improved iron status to about the same degree as a conventional bariatric meal replacement product+iron lozenges |
